Assay [1] concerns the target Metabotropic glutamate receptor 1 (Homo sapiens) (UniProt Q13255). Briefly: Compound (300 uM) was evaluated for percentage agonist activity against human mGluR1a expressed in chinese hamster ovary cells. In kind it is functional, cell-based.
Assay [2] has as its target Metabotropic glutamate receptor 6 (Homo sapiens) (UniProt O15303). Description: Compound (300 uM) was evaluated for percentage agonist activity against human mGluR6 expressed in chinese hamster ovary cells. Format: functional, cell-based.

Molecules are shown by their SMILES.

Chain of Metabotropic glutamate receptor 1 (Homo sapiens) (Q13255 19-1194 limits assumed): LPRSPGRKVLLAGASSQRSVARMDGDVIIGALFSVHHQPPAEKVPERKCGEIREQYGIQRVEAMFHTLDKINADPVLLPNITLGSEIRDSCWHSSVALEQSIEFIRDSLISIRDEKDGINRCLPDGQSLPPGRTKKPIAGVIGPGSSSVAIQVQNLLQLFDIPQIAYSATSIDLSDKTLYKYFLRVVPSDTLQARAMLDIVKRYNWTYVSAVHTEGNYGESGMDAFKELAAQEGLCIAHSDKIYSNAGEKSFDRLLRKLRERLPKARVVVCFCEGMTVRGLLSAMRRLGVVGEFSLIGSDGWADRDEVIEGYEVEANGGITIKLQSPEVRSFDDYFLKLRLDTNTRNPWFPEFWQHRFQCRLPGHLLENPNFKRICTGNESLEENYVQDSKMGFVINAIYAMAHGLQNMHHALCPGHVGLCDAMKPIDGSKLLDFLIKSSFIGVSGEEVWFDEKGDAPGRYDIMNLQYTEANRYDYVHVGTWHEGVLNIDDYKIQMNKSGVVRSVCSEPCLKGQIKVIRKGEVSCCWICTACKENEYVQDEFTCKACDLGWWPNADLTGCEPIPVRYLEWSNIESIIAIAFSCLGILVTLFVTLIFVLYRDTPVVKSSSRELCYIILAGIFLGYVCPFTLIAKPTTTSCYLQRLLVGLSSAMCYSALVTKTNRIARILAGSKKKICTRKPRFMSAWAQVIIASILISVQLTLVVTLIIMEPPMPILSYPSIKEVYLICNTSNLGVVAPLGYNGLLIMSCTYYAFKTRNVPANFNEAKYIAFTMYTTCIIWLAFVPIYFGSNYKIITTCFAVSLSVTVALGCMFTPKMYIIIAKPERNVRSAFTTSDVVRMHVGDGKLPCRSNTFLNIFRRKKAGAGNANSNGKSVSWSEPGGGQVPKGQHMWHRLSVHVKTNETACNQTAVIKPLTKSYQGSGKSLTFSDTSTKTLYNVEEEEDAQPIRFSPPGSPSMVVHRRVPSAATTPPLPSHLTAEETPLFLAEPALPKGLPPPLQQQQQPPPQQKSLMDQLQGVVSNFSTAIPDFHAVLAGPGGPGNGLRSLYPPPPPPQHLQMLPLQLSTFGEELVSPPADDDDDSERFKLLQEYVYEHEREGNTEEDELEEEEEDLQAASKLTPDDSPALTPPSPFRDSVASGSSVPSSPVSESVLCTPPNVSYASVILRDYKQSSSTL
Chain of Metabotropic glutamate receptor 6 (Homo sapiens) (O15303 whole entry): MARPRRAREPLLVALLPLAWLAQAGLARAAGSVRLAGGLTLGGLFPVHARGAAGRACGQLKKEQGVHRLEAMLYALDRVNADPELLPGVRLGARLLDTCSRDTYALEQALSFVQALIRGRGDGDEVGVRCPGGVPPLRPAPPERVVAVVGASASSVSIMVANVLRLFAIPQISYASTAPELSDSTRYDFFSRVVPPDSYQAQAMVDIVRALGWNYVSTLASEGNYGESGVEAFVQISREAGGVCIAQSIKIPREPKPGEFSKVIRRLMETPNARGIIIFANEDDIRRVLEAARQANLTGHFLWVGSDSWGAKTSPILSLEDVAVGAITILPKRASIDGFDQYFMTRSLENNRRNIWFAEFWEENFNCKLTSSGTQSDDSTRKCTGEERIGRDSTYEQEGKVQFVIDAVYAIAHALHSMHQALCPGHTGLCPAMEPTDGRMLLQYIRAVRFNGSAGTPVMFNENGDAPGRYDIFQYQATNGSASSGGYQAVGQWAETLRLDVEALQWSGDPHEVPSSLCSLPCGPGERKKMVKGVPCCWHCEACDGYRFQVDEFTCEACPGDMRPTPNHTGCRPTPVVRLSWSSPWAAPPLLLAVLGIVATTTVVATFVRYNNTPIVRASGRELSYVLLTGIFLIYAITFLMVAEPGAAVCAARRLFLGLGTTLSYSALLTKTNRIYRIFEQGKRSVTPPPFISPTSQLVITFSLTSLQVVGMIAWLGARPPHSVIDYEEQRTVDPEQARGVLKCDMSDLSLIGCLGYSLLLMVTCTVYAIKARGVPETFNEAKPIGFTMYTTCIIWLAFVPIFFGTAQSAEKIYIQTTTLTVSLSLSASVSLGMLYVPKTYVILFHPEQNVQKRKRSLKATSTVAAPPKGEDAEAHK

In the case of `N[C@@]1(C(=O)O)CCC2C[C@H](C(=O)O)C21` (some centres not stated), the Max agonist activity in assay [1] is 16%; in assay [2], 20%.
